Data taken from patent US20230312723A1, “METHODS AND COMPOSITIONS FOR NON-SMALL CELL LUNG CANCER IMMUNOTHERAPY” (Genentech, Inc., priority 2020, published 2023).

System: Stage IV non-squamous or squamous NSCLC
Assay: Phase III randomized open-label study of atezolizumab vs platinum-based chemotherapy: efficacy (OS, PFS, ORR, DOR per RECIST v1.1), incl. PD-L1 and bTMB subgroups
Type: in vivo, human
Experimental: As described below, the primary endpoint of this study was improvement in overall survival (OS). Secondary endpoints included progression-free survival (PFS), overall response rate (ORR), and duration of response (DOR), among others.
FIG. 1 illustrates the study design.
At screening, tumor specimens from each potentially eligible patient were tested for PD-L1 expression by a central laboratory using an IHC assay. Only patients who are PD-L1 selected (TC1/2/3 or 101/2/3; corresponding to 1% PD-L1 expressing TCs and 1% of tumor area occupied by PD-L1 expressing ICs) were enrolled. […] Randomization was stratified by sex (male vs. female), ECOG Performance Status (0 vs. 1), histology (non-squamous vs. squamous), and PD-L1 tumor expression by IHC (TC1/2/3 and any IC vs. TC0 and 101/2/3).
Patients randomized to receive pemetrexed in combination with either cisplatin or carboplatin (non-squamous disease) received chemotherapy intravenously on Day 1 of each 21-day cycle for four or six cycles, followed by maintenance therapy with pemetrexed. Patients randomized to receive gemcitabine in combination with either cisplatin or carboplatin (squamous disease) received cisplatin or carboplatin intravenously on Day 1 and gemcitabine intravenously on Days 1 and 8 of each 21-day cycle for four or six cycles, followed by best supportive care. The intended number of cycles planned for the platinum-based induction chemotherapy (i.e., four or six cycles) was specified by the investigator prior to study randomization. Treatment will continue until disease progression, unacceptable toxicity, or death.
All patients underwent tumor assessment at baseline and every 6 weeks (±7 days) for 48 weeks following Cycle 1, Day 1 regardless of treatment delays. […] In the absence of radiographic disease progression per RECIST v1.1, tumor assessments continued regardless of whether patients start a new anti-cancer therapy.
The primary efficacy outcome measure for this study is OS, defined as the time from randomization to death from any cause.
The secondary efficacy outcome measures for this study are as follows: • PFS, defined as the time from randomization to the first occurrence of disease progression, as determined by the investigator with use of RECIST v1.1, or death from any cause, whichever occurs first • Objective response (PR plus CR) as determined by the investigator according to RECIST v1.1 • DOR, defined as the time from the first occurrence of a documented objective response to the time of disease progression, as determined by the investigator with use of RECIST v1.1, or death from any cause, whichever occurs first • OS at 1- and 2-year landmark timepoints • TTD and change from baseline (i.e., improvement or deterioration based on presenting symptomatology) in each of the patient-reported lung cancer symptoms (cough, dyspnea, or chest pain) with use of the SILO scale • TTD in patient-reported lung cancer symptoms, defined as time from randomization to deterioration (10-point change) in any of the following symptom subscales (cough, dyspnea [multi-item scale], and chest pain), whichever occurs first, as measured by the EORTC QLQ-LC13 • OS and investigator-assessed PFS according to RECIST v1.1 in the PD-L1 (defined with SP263 IHC assay) and bTMB subpopulations. The bTMB assay (Foundation Medicine, Cambridge, MA) identifies single nucleotide variants at ≥0.5% across 394 genes and estimates tumor fraction by maximum somatic allele frequency, filters out germline events and counts non-driver somatic mutations to generate a bTMB score. The bTMB score cutoffs evaluated were 0, 6 and […] of 16 (16 mutations/1.1 Mb) equates to approximately 14.5 mutations/Mb.

[1] = TC1/2/3 or IC1/2/3-WT population
[2] = bTMB 6 cutoff, bTMB BEP-WT population

Substance: atezolizumab
- OS vs chemotherapy (in words) (PD-L1-positive BEP subgroups): OS improvement favoring atezolizumab vs chemotherapy
- Median OS [1]: 17.5 months
- OS HR, stratified (atezo vs chemo) [1]: 0.832
- Median OS (TC2/3 or IC2/3-WT population): 18.2 months
- OS HR, stratified (atezo vs chemo) (TC2/3 or IC2/3-WT population): 0.717
- Confirmed ORR (TC3 or IC3-WT population): 38.3% (29.08,
- Overall Survival, Median (TC3 or IC3-WT population): 20.2 months
- Overall Survival, Stratified HR (atezo vs chemo) (TC3 or IC3-WT population): 0.595
- Overall Survival, improvement of median vs chemo (TC3 or IC3-WT population): 7.1 months
- Progression-Free Survival, Median (TC3 or IC3-WT population): 8.1 months
- Progression-Free Survival, Stratified HR (atezo vs chemo) (TC3 or IC3-WT population): 0.630
- Progression-Free Survival, improvement of median vs chemo (TC3 or IC3-WT population): 3.1 months
- PFS vs chemotherapy (in words) (across PD-L1 BEP subgroups): PFS improvement with atezolizumab was observed
- OS unstratified HR (atezolizumab vs chemotherapy) [2]: 0.75
- PFS HR (atezolizumab vs chemotherapy) [2]: 0.55
